The results in this text go back to ChEMBL document CHEMBL1201862, “PubChem BioAssay data set” (2004).

The target of test [1] is T1, DNA repair and recombination protein RAD54-like (Homo sapiens, UniProt Q92698).
T1 sequence (Q92698 whole entry): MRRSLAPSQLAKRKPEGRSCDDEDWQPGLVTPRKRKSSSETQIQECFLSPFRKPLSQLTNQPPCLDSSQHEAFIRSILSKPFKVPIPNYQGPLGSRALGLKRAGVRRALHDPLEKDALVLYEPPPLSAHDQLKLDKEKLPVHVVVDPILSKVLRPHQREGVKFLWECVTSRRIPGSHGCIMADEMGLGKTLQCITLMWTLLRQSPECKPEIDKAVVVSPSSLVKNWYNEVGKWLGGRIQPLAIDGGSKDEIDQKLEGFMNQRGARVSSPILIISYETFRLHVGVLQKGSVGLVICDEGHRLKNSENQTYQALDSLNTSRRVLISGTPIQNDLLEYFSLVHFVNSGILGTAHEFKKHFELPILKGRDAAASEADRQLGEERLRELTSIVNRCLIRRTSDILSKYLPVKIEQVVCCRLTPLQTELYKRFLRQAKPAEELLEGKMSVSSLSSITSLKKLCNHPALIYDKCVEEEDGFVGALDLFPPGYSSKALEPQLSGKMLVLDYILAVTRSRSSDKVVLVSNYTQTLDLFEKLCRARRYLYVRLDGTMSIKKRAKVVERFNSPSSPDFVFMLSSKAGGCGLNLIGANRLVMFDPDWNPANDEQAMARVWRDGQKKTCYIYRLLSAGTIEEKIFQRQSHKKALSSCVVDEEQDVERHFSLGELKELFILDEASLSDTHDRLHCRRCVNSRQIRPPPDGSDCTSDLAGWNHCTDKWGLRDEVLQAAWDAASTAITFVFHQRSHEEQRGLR
Put plainly: inhibitors of human RAD54 branch migration, confirmation, biochemical, fluorescence, cherry-picked samples, dose series (AID 651657). Format: functional.

The nature of test [2]: cytotoxicity in HEK-293T cells, dose response, cytotoxicity control for TCR NF-kB inhibitor project, luminescence, T-cell screen hits (AID 489026).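 Note: cells exposed to compound about 14 hours before the viability readout.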 Format: functional, cell-based.
The target of test [3] is T2, DNA repair protein RAD52 homolog (Homo sapiens, UniProt P43351).
T2 sequence (P43351 whole entry): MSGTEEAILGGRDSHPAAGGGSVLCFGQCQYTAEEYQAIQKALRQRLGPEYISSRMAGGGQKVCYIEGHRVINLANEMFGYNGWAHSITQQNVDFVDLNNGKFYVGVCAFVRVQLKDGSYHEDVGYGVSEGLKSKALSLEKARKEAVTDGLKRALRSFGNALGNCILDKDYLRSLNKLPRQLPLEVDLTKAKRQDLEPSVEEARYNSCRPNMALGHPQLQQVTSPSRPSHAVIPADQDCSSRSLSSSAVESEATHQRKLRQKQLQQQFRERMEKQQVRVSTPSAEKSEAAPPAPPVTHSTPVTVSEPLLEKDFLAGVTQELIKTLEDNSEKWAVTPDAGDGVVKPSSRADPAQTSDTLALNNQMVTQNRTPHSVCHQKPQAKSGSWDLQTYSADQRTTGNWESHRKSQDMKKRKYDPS
Format: functional, biochemical.

For test [4], the target named is T3, Fatty acid synthase (Homo sapiens, UniProt P49327). Briefly: FAS thioesterase domain inhibitors, dose response, biochemical, kinetic fluorescence intensity (AID 624326).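 Note: rate of fluorescence rise from hydrolysis of a fluorogenic O-methyl fluorescein ester substrate.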 Format: functional.
Test [5] deals with T3, Fatty acid synthase. Briefly: FAS thioesterase domain inhibitors, dose response, biochemical, endpoint fluorescence intensity, uHTS hits (AID 624327).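 Note: fluorescence from hydrolysis of an O-methyl fluorescein acyl ester substrate by the enzyme.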 Format: functional.
A short description of test [6]: inhibitors of intracellular T. cruzi replication, confirmation, NIH3T3 host cells, beta-gal luminescence (AID 2044).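 Note: intracellular parasites grown in NIH/3T3 mouse fibroblasts as host cells; luminescent beta-galactosidase reporter signal from transgenic T. cruzi replicating inside host cells; inhibitors lower the luminescence signal.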 Format: functional, cell-based.
The nature of test [7]: cytotoxicity toward NIH3T3 fibroblasts, dose response, counter-screen, cell-based, ATP luminescence, mouse fibroblasts (AID 2010).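 Note: cells exposed to compound for about 90 hours before reading.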 Format: functional.
For another test, the system named is Vero. Put plainly: cells. Format: functional. Conditions: Chlorocebus sabaeus.
Test [8] deals with T4, Short transient receptor potential channel 4 (Mus musculus, UniProt Q9QUQ5).
T4 sequence (Q9QUQ5 whole entry): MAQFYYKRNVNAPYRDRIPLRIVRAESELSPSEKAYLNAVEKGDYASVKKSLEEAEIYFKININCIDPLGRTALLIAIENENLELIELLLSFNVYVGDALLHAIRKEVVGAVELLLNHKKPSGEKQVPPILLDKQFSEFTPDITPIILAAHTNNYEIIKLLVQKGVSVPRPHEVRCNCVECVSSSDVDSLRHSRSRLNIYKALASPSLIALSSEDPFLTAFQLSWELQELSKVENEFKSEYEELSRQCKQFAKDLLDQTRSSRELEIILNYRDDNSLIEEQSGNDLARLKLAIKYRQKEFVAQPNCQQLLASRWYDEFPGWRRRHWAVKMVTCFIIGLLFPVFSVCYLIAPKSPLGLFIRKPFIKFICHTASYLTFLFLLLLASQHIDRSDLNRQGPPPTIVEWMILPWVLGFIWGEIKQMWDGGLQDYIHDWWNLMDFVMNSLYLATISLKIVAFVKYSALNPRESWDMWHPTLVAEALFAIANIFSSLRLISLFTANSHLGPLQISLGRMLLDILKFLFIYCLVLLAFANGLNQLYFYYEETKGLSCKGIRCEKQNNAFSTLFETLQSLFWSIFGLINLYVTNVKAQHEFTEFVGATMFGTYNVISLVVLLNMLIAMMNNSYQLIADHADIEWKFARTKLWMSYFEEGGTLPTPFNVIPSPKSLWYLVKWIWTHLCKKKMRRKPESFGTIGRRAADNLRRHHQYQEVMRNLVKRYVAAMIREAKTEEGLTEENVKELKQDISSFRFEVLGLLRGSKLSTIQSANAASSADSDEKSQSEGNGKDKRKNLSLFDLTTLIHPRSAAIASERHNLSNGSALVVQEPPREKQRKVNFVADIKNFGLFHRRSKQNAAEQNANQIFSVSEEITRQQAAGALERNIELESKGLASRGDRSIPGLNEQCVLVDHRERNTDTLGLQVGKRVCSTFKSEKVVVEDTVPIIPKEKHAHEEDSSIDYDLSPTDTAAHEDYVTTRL
Briefly: mouse TRPC4 channel inhibitors, dose response, cell-based, HEK293 TRPC4/mu-opioid, Fluo-4 calcium (AID 434942).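 Note: potency of inhibitors blocking the TRPC4 calcium response.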 Format: functional.

Test [9] has as its target Voltage-dependent T-type calcium channel subunit alpha-1H (Homo sapiens, UniProt O95180). Format: functional.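 Note: channel activity triggered by adding a high calcium stimulation buffer.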
Test [10] has as its target T5, Rac GTPase-activating protein 1 (Homo sapiens, UniProt Q9H0H5).
T5 sequence (Q9H0H5 whole entry): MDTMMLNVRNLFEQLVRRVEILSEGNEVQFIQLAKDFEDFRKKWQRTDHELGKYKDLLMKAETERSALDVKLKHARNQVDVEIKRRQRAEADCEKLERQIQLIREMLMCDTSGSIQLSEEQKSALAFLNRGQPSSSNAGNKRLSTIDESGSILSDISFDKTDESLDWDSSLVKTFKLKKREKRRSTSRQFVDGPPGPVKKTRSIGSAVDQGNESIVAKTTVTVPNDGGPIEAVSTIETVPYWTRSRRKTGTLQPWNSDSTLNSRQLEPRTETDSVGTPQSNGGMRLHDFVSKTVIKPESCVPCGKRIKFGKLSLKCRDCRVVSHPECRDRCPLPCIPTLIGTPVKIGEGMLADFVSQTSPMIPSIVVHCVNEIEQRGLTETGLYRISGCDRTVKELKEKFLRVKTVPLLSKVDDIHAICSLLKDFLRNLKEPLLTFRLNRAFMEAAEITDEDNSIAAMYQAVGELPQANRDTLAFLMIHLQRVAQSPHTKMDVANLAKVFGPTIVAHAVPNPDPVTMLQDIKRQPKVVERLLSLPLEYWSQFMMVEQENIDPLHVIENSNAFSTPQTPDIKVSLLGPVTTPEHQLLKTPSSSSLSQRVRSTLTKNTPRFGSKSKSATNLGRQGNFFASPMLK
Briefly: MgcRacGAP GTPase-activating activity inhibitors, confirmation, biochemical, ADP Hunter fluorescence, primary and confirmatory (AID 624330). Format: functional.

Test [11] has as its target T4, Short transient receptor potential channel 4. Put plainly: mouse TRPC4 channel activators, dose response, cell-based, HEK293 TRPC4/mu-opioid, Fluo-4 calcium (AID 434937). Format: functional.

Calls of active or inactive are those of the source. *1 amine or outer side, *2 acyl side, *3 side chain or, on linkers, in order; H or OH if unused. Where a SMILES comes first, the peptide text is derived from it. [ ]: non-standard residue; d: D form. X2 = CCC[C@@H](N[*:1])[C@H](C)C(=O)O[C@H](C(=O)[*:2])[C@@H](C)CC; X1 = CC(N[*:1])C(=O)C(C)(C)C(=O)[*:2]; NMeY = CN[C@@H](Cc1ccc(O)cc1)C(=O)O; NMeL = CN[C@@H](CC(C)C)C(=O)O; NMeV = CN[C@H](C(=O)O)C(C)C; NMeA = CN[C@@H](C)C(=O)O Where only a bound is given, the exact number is not on record here.

Voltage-dependent T-type calcium channel subunit alpha-1H, sequence (O95180 whole entry): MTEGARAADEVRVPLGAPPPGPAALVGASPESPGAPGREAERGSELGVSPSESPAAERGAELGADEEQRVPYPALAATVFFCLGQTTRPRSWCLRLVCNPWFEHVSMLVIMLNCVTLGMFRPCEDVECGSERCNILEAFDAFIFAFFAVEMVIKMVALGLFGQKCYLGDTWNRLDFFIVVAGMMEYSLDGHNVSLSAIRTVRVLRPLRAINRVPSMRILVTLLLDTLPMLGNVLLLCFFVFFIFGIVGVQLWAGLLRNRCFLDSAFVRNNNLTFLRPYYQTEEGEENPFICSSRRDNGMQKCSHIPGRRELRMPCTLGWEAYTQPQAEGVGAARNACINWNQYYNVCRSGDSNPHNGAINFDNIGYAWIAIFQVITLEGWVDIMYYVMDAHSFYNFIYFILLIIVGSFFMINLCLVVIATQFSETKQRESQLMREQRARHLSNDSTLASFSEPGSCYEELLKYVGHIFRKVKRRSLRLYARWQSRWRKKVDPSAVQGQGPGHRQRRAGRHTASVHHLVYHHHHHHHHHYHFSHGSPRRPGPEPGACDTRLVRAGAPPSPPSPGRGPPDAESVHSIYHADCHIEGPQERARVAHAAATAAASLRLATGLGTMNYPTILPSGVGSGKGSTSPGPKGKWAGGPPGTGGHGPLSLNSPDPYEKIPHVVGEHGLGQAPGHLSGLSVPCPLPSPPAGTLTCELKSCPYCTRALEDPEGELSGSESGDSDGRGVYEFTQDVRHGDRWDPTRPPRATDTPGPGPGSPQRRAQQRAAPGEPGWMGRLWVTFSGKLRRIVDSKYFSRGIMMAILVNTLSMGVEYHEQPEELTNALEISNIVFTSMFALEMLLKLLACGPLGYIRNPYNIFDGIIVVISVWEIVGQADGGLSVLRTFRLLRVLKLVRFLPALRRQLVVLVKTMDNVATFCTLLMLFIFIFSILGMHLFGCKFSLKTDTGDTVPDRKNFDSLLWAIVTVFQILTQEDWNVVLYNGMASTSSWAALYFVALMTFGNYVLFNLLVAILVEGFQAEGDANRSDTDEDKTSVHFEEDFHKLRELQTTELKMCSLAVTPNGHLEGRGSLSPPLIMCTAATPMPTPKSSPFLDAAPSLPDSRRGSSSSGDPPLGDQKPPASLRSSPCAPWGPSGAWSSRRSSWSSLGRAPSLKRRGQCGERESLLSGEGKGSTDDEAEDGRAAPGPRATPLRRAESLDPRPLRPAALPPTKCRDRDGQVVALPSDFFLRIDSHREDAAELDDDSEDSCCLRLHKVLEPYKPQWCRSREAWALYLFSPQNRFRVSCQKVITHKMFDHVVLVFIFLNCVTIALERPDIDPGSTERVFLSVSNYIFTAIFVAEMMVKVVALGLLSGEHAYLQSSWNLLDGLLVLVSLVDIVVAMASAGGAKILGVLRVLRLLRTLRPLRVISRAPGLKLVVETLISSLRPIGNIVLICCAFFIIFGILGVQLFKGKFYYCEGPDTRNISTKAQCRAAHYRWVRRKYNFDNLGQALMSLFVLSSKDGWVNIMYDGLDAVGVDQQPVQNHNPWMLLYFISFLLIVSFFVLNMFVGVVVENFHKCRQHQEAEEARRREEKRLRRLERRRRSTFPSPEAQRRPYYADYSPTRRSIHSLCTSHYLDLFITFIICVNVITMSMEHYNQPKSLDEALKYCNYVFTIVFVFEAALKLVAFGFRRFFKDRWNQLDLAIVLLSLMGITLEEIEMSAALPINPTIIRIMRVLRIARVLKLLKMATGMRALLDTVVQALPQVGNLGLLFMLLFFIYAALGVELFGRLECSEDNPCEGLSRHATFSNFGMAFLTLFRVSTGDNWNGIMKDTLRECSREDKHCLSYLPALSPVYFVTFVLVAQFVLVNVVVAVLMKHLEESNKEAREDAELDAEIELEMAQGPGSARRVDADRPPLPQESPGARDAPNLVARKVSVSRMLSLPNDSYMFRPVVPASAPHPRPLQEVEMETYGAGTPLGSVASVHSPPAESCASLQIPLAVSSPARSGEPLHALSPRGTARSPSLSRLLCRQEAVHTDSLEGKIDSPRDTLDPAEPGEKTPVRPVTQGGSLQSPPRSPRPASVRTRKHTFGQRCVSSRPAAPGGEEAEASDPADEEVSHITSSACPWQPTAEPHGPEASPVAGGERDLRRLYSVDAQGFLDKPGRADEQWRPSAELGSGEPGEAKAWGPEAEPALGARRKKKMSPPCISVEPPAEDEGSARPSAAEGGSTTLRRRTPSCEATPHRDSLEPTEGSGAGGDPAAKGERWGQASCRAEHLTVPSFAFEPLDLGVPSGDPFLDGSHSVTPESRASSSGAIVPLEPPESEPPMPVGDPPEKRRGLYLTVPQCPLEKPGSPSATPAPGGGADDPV
T3 sequence (P49327 whole entry, the tested form may be a part): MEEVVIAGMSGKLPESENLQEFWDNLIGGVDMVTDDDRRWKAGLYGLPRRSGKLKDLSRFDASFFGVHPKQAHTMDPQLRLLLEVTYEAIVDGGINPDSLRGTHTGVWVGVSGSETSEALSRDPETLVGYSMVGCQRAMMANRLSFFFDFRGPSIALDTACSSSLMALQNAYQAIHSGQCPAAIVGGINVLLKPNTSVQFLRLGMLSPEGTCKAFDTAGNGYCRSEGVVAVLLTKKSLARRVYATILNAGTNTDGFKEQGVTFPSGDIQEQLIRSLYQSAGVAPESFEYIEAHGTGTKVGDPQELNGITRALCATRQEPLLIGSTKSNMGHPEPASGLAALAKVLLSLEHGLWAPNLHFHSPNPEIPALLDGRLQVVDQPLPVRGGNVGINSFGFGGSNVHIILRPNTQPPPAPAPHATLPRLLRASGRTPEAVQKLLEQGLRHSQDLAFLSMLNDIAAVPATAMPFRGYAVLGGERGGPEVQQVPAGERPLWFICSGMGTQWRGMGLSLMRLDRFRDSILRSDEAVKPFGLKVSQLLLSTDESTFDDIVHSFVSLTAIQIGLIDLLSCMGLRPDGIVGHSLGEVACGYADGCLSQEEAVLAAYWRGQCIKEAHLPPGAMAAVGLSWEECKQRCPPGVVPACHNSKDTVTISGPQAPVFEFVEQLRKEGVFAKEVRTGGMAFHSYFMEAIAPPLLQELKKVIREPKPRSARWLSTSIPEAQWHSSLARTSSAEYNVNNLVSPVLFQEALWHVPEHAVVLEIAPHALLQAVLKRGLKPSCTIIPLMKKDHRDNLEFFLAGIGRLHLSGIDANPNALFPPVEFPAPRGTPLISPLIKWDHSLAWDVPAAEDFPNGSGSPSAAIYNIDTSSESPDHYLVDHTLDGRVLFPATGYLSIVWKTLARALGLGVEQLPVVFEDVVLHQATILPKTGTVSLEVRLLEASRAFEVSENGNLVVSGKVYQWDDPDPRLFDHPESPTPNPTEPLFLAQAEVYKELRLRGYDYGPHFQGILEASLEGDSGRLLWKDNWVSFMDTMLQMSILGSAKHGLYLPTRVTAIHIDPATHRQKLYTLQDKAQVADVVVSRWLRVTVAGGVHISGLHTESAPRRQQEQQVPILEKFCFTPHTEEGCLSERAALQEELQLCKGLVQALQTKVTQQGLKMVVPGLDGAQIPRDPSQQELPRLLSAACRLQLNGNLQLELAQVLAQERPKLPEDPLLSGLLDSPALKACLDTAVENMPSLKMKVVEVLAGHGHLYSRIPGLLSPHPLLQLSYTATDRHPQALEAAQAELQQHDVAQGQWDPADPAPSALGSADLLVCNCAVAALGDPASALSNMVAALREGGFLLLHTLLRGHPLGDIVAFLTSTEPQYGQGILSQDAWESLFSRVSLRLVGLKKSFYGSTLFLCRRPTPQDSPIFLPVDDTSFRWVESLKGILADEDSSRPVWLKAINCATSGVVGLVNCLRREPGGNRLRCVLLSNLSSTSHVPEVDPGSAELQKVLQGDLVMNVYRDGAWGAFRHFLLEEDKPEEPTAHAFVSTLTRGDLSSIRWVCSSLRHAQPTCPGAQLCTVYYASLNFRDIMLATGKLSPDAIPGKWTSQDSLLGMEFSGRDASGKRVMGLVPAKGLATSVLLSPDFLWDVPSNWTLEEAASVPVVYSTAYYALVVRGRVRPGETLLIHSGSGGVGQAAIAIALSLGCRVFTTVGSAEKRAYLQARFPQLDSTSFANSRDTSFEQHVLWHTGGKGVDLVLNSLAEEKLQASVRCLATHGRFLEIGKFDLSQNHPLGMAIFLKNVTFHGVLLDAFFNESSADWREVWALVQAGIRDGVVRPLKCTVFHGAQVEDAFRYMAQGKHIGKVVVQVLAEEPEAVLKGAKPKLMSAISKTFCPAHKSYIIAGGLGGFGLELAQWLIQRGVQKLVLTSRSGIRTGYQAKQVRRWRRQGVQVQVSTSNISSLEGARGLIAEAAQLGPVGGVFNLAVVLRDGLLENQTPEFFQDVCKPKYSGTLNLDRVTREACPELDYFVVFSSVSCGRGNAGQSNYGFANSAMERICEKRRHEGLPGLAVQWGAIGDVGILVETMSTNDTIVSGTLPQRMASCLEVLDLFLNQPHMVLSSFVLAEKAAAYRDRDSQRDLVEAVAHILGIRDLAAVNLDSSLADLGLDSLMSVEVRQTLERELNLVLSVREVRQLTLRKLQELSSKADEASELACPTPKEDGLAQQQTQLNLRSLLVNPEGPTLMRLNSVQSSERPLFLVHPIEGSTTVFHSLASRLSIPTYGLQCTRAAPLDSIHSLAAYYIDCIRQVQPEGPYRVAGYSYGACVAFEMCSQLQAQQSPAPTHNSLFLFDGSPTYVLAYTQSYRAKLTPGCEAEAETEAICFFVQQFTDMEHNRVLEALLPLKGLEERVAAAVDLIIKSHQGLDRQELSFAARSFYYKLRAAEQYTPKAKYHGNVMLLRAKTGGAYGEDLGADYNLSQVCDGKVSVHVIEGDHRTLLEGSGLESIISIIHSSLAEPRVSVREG

One may read the AC50 as the concentration giving half of the maximal activity seen. Regarding `COc1ccc2cc3cc(C(=O)NCCCN4CCC(C)CC4)oc3nc2c1`, the AC50 in test [1] was 29.2 µM (active).

By IC50 is commonly meant the midpoint of a concentration-inhibition curve. On to `CCC[C@H]1NC(=O)[C@H](C)N(C)C(=O)C(C)(C)C(=O)C(C)NC(=O)[C@H](Cc2ccc(OC)cc2)N(C)C(=O)[C@H](C(C)C)N(C)C(=O)CNC(=O)[C@H](CC(C)C)N(C)C(=O)CNC(=O)[C@H]([C@@H](C)CC)OC(=O)[C@H]1C` (stereo partly specified) (cyclo(G[NMeL]G[NMeV][NMeY](Me)[X1][NMeA][X2])), for which the IC50 in [2] is > 80 µM (inactive).

Regarding `CN(C)CCN(C(=O)CN1C(=O)c2ccccc2C1=O)c1nc2cc3c(cc2s1)OCO3`, the AC50 in [1] is 41.5 µM (active); in [3], 23.9 µM (active).

For orientation: EC50 means the concentration at which the effect is half-maximal. With `Cc1c([N+](=O)[O-])cc(C(=O)Nc2ccc(Cc3ccncc3)cc2)cc1[N+](=O)[O-]`, the concentration for half-maximal inhibition (IC50) at Fatty acid synthase [4] is 8.08 µM (active); on Fatty acid synthase [5], 7.27 µM (active). In addition, the concentration for a half-maximal effect (EC50) in [6] was 0.799 µM (active); in [7], > 60 µM (not active).

One may read the CC50 as the concentration at which the toxic effect on the cells reaches its halfway point. As to `CCN(CC)CC(O)c1ccc2ccc3ccc(O)cc3c2c1` (stereo unspecified), the values for the AC50 in [1] and in [3] were 23.3 µM (active) and 7.92 µM (active), respectively. Besides, the CC50 in the test with Vero is > 25 µM (active).

For `c1ccc2c(N3CCCCC3)nc(N3CCOCC3)nc2c1`, the EC50 in test [8] is 1.88 µM (active).

As for `CCOc1ccc2c(C)nc(NC3=NC(C)=CC(C)(C)N3)nc2c1`, in test [8], the EC50 is 1.68 µM (active). The AC50 in test [3] is 4.06 µM (active).

For the compound `COc1ccc(C(=O)NC(C)CCc2ccccc2)cc1[N+](=O)[O-]` (stereo unspecified), the results for the IC50 at Fatty acid synthase [4] and at Fatty acid synthase [5] were 9.58 µM (active) and 13.4 µM (active), respectively.

With `CCOc1ccccc1N(CC)C(=O)c1nn(C)c2c1CSc1ccccc1-2`, in [8], the EC50 was 2.99 µM (active).

With `O=C(NC1CCCCC1)N1CCN(C(c2ccccc2)c2ccccc2)CC1`, the EC50 in [8] is 1.5 µM (active).

Turning to `COc1ccc(Cl)cc1-c1cc(C(=O)NCc2cccc(Cl)c2)[nH]n1`, the figures for the IC50 at Fatty acid synthase [4] and on Fatty acid synthase [5] were 5.46 µM (active) and 12.4 µM (active), respectively.

As to `COCCn1nnnc1C(c1cccs1)N1CCN(c2cccc(C(F)(F)F)c2)CC1` (stereo unspecified), the concentration for a half-maximal effect (EC50) in test [9] was 97.8 µM (active).

As for `COc1ccc(/C=C(/NC(=O)c2ccc([N+](=O)[O-])cc2)C(=O)NCCCN(C)C)cc1`, the values for the IC50 on Fatty acid synthase [4] and at Fatty acid synthase [5] were 3.13 µM (active) and 5.03 µM (active), respectively.

On to `CC(=O)Nc1ccc(S(=O)(=O)N2CCSc3ccccc32)cc1`, for which, in [2], the IC50 is > 80 µM (inactive).

As for `CCCCN(C)C(=O)C1CCN(Cc2ccc(OCc3ccccc3)cc2)CC1`, the IC50 in test [10] was 204 µM (active). Further, the EC50 in test [9] is 7.3 µM (active).

As for `CCCN1CCN(C(S)=Nc2ccc3nc(N4CCN(CC)CC4)cc(C)c3c2)CC1`, the AC50 in test [1] is 82.8 µM (active); in test [3] it was 15.3 µM (active).

On to `COc1ccc(-c2noc(CSc3nnc(Cc4ccccc4)n3-c3cccc(C)c3)n2)cc1OC`, for which the EC50 in [9] was 4.35 µM (active).

`CCC(SC1=N/C(=C/c2ccccc2OC)C(=O)N1c1ccccc1)C(=O)Nc1cc(C)on1` (stereo unspecified): the EC50 in test [9] was 4.23 µM (active).

In the case of `CCCN(c1nc(C)cc(OC)n1)S(=O)(=O)c1ccccc1`, the EC50 in test [8] is 2.11 µM (active).

Turning to `CCOc1ccc(NC(=O)c2cc([N+](=O)[O-])ccc2N2CCOCC2)cc1`, the IC50 at Fatty acid synthase [4] was 13.7 µM (active); at Fatty acid synthase [5], 13.4 µM (active).

In the case of `COc1ccc2[nH]c3c(c2c1)CCN1C(=O)C(CC(=O)NCc2ccco2)C[C@H](C(=O)N2CCOCC2)[C@@]31CCC1CCCC1` (stereo partly specified), the half-inhibitory concentration (IC50) is 4.73 µM (active) on Fatty acid synthase [4] and 5.98 µM (active) on Fatty acid synthase [5].

Turning to `Cc1ccccc1Cn1nc(C)c(NC(=O)c2noc3c2CCc2ccccc2-3)c1C`, the 50% effective concentration (EC50) in test [9] was 1.92 µM (active).

In the case of `COc1cccc(-c2nn(-c3ccccc3)cc2CN(C)C(C)c2ccncn2)c1` (stereo unspecified), the results for the EC50 in test [8] and in test [11] were 2.99 µM (active) and 6.68 µM (active), respectively.

In the case of `Cc1nn(Cc2ccc(Cl)c(Cl)c2)c(C)c1NC(=O)c1cn(-c2ccccc2)nc1-c1ccccc1`, the EC50 is 1.99 µM (active) in test [6], 5.29 µM (active) in test [9] and > 60 µM (not active) in test [7].
